{
  "source": "patent US20150105252A1",
  "about": "“SUBSTITUTED PYRAZOLES AS HERBICIDES” (E I DU PONT DE NEMOURS AND COMPANY, priority 2013, published 2015)",
  "key": {"[1]": {"tested_on": "crabgrass, large", "experiment": "Test A postemergence", "format": "in vivo, Digitaria sanguinalis", "conditions": "Postemergence, 1000 g ai/ha; visual rating after approx. 10 days, 0 to 100 scale (0 no effect, 100 complete control)", "procedure,_shortened": "(§1)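 Visual injury ratings, 0 = no effect to 100 = complete control, taken about 10 days after treatment against untreated controls. Test chemicals, in a non-phytotoxic surfactant-containing solvent, were sprayed onto soil preemergence or onto one- to two-leaf plants (2–10 cm) postemergence, in loam–sand soil under greenhouse conditions.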"}, "[2]": {"tested_on": "morningglory", "experiment": "Test A preemergence", "format": "in vivo, Ipomoea spp.", "conditions": "Preemergence, 1000 g ai/ha; 0 to 100 scale, 0 no effect, 100 complete control", "procedure,_shortened": "as §1"}, "[3]": {"tested_on": "morningglory", "experiment": "Test A postemergence", "format": "in vivo, Ipomoea spp.", "conditions": "Postemergence, 1000 g ai/ha; visual rating after approx. 10 days, 0 to 100 scale (0 no effect, 100 complete control)", "procedure,_shortened": "as §1"}, "[4]": {"tested_on": "barnyardgrass", "experiment": "Test C flooded paddy test", "format": "in vivo, Echinochloa crus-galli", "conditions": "Flood", "procedure,_shortened": "(§2)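 In-water treatment: compound dosed into 3 cm flood over soil, water level unchanged throughout. Controls run alongside; visual assessment at day 13–15.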"}, "[5]": {"tested_on": "foxtail, giant", "experiment": "Test A preemergence", "format": "in vivo, Setaria faberii", "conditions": "Preemergence, 1000 g ai/ha; 0 to 100 scale, 0 no effect, 100 complete control", "procedure,_shortened": "as §1"}, "[6]": {"tested_on": "corn", "experiment": "Test A postemergence", "format": "in vivo, Zea mays", "conditions": "Postemergence, 1000 g ai/ha; visual rating after approx. 10 days, 0 to 100 scale (0 no effect, 100 complete control)", "procedure,_shortened": "as §1"}, "[7]": {"tested_on": "pigweed", "experiment": "Test A preemergence", "format": "in vivo, Amaranthus retroflexus", "conditions": "Preemergence, 1000 g ai/ha; 0 to 100 scale, 0 no effect, 100 complete control", "procedure,_shortened": "as §1"}, "[8]": {"tested_on": "velvetleaf", "experiment": "Test A preemergence", "format": "in vivo, Abutilon theophrasti", "conditions": "Preemergence, 1000 g ai/ha; 0 to 100 scale, 0 no effect, 100 complete control", "procedure,_shortened": "as §1"}, "[9]": {"tested_on": "sedge, umbrella", "experiment": "Test C flooded paddy test", "format": "in vivo, Cyperus difformis", "conditions": "Flood", "procedure,_shortened": "as §2"}, "[10]": {"tested_on": "ducksalad", "experiment": "Test C flooded paddy test", "format": "in vivo, Heteranthera limosa", "conditions": "Flood", "procedure,_shortened": "as §2"}, "[11]": {"tested_on": "wheat", "experiment": "Test A postemergence", "format": "in vivo, Triticum aestivum", "conditions": "Postemergence, 1000 g ai/ha; visual rating after approx. 10 days, 0 to 100 scale (0 no effect, 100 complete control)", "procedure,_shortened": "as §1"}, "[12]": {"tested_on": "rice", "experiment": "Test C flooded paddy test", "format": "in vivo, Oryza sativa", "conditions": "Flood", "procedure,_shortened": "as §2"}, "[13]": {"tested_on": "velvetleaf", "experiment": "Test A postemergence", "format": "in vivo, Abutilon theophrasti", "conditions": "Postemergence, 1000 g ai/ha; visual rating after approx. 10 days, 0 to 100 scale (0 no effect, 100 complete control)", "procedure,_shortened": "as §1"}, "[14]": {"tested_on": "barnyardgrass", "experiment": "Test A preemergence", "format": "in vivo, Echinochloa crus-galli", "conditions": "Preemergence, 1000 g ai/ha; 0 to 100 scale, 0 no effect, 100 complete control", "procedure,_shortened": "as §1"}, "[15]": {"tested_on": "corn", "experiment": "Test A preemergence", "format": "in vivo, Zea mays", "conditions": "Preemergence, 1000 g ai/ha; 0 to 100 scale, 0 no effect, 100 complete control", "procedure,_shortened": "as §1"}, "[16]": {"tested_on": "pigweed", "experiment": "Test A postemergence", "format": "in vivo, Amaranthus retroflexus", "conditions": "Postemergence, 1000 g ai/ha; visual rating after approx. 10 days, 0 to 100 scale (0 no effect, 100 complete control)", "procedure,_shortened": "as §1"}, "[17]": {"tested_on": "foxtail, giant", "experiment": "Test A postemergence", "format": "in vivo, Setaria faberii", "conditions": "Postemergence, 1000 g ai/ha; visual rating after approx. 10 days, 0 to 100 scale (0 no effect, 100 complete control)", "procedure,_shortened": "as §1"}, "[18]": {"tested_on": "crabgrass, large", "experiment": "Test A preemergence", "format": "in vivo, Digitaria sanguinalis", "conditions": "Preemergence, 1000 g ai/ha; 0 to 100 scale, 0 no effect, 100 complete control", "procedure,_shortened": "as §1"}, "[19]": {"tested_on": "barnyardgrass", "experiment": "Test A postemergence", "format": "in vivo, Echinochloa crus-galli", "conditions": "Postemergence, 1000 g ai/ha; visual rating after approx. 10 days, 0 to 100 scale (0 no effect, 100 complete control)", "procedure,_shortened": "as §1"}, "[20]": {"tested_on": "wheat", "experiment": "Test A preemergence", "format": "in vivo, Triticum aestivum", "conditions": "Preemergence, 1000 g ai/ha; 0 to 100 scale, 0 no effect, 100 complete control", "procedure,_shortened": "as §1"}, "[21]": {"conditions": "31 g ai/ha, scale 0 to 100 (0 no effect, 100 complete control)"}, "[22]": {"conditions": "62 g ai/ha, scale 0 to 100 (0 no effect, 100 complete control)"}},
  "data": [
    {"smiles": "CCCc1cc(C(=O)NC2CC2)nn1Cc1cccc(C(F)(F)F)c1", "note": "[Compound 30]", "values": [
      {"measurement": "Crabgrass, Large plant response rating", "setting": "[1]", "result": 90},
      {"measurement": "Morningglory plant response rating", "setting": "[2]", "result": 60},
      {"measurement": "Morningglory plant response rating", "setting": "[3]", "result": 100},
      {"measurement": "Plant response rating, Barnyardgrass", "setting": "[4]; [21]", "result": 0},
      {"measurement": "Plant response rating, Barnyardgrass", "setting": "[4]; [22]", "result": 0},
      {"measurement": "Plant response rating, Barnyardgrass", "setting": "[4]; 125 g ai/ha, scale 0 to 100", "result": 0},
      {"measurement": "Plant response rating, Barnyardgrass", "setting": "[4]; 250 g ai/ha, scale 0 to 100", "result": 20},
      {"measurement": "Foxtail, Giant plant response rating", "setting": "[5]", "result": 100},
      {"measurement": "Corn plant response rating", "setting": "[6]", "result": 40},
      {"measurement": "Pigweed plant response rating", "setting": "[7]", "result": 30},
      {"measurement": "Velvetleaf plant response rating", "setting": "[8]", "result": 30},
      {"measurement": "Plant response rating, Sedge, Umbrella", "setting": "[9]; [21]", "result": 0},
      {"measurement": "Plant response rating, Sedge, Umbrella", "setting": "[9]; [22]", "result": 0},
      {"measurement": "Plant response rating, Sedge, Umbrella", "setting": "[9]; 125 g ai/ha, scale 0 to 100", "result": 0},
      {"measurement": "Plant response rating, Sedge, Umbrella", "setting": "[9]; 250 g ai/ha, scale 0 to 100", "result": 80},
      {"measurement": "Plant response rating, Ducksalad", "setting": "[10]; [21]", "result": 60},
      {"measurement": "Plant response rating, Ducksalad", "setting": "[10]; 125 g ai/ha, scale 0 to 100", "result": 80},
      {"measurement": "Plant response rating, Ducksalad", "setting": "[10]; 250 g ai/ha, scale 0 to 100", "result": 100},
      {"measurement": "Wheat plant response rating", "setting": "[11]", "result": 40},
      {"measurement": "Plant response rating, Rice", "setting": "[12]; [21]", "result": 0},
      {"measurement": "Plant response rating, Rice", "setting": "[12]; [22]", "result": 0},
      {"measurement": "Plant response rating, Rice", "setting": "[12]; 125 g ai/ha, scale 0 to 100", "result": 0},
      {"measurement": "Plant response rating, Rice", "setting": "[12]; 250 g ai/ha, scale 0 to 100", "result": 0},
      {"measurement": "Velvetleaf plant response rating", "setting": "[13]", "result": 100},
      {"measurement": "Barnyardgrass plant response rating", "setting": "[14]", "result": 90},
      {"measurement": "Corn plant response rating", "setting": "[15]", "result": 20},
      {"measurement": "Pigweed plant response rating", "setting": "[16]", "result": 100},
      {"measurement": "Foxtail, Giant plant response rating", "setting": "[17]", "result": 100},
      {"measurement": "Crabgrass, Large plant response rating", "setting": "[18]", "result": 100},
      {"measurement": "Barnyardgrass plant response rating", "setting": "[19]", "result": 70},
      {"measurement": "Wheat plant response rating", "setting": "[20]", "result": 10}
    ]}
  ]
}
